Experimental findings from US4988691A (priority 1989, dated 1991) are described below.

The target of test [1] is T1, contracturing effect of acetylcholine (Cavia porcellus, UniProt H0W1Z3).
T1 construct: Segments measuring 5-6 cm were drawn form the end portion of the small intestine; from tissue; host or cells: guinea pig terminal small intestine (ileum)
Briefly: anticholinergic activity in vitro (contracturing effect of acetylcholine on isolated guinea pig small intestine). The arrangement: species or system Guinea pigs.

The target of test [2] is T2, contracturing effect of histamine (Cavia porcellus, UniProt P31389).
T2 construct: Segments measuring 5-6 cm were drawn form the end portion of the small intestine; from tissue; host or cells: guinea pig terminal small intestine (ileum)
T2 sequence (P31389 whole entry): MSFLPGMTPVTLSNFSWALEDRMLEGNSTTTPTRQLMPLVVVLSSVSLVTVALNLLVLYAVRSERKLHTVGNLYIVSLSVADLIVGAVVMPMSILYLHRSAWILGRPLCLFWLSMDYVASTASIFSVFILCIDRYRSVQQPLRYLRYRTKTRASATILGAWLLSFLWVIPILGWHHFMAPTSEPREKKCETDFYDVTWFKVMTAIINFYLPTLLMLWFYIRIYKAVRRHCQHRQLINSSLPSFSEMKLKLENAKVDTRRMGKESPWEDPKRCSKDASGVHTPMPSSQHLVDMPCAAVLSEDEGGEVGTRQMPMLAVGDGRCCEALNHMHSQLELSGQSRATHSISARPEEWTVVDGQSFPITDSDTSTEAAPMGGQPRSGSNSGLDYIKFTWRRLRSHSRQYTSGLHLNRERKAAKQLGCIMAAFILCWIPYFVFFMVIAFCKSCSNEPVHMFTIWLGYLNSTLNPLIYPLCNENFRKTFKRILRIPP
Briefly: antihistaminic activity in vitro (contracturing effect of histamine on isolated guinea pig small intestine). Also on record: species or system Guinea pigs. Particulars: vs histamine; guinea pig small intestine; 37° C.; test compounds 10^-5 M; read-out: Antihistaminic activity (pA2) (converted).

Test [3] concerns receptors for benzodiazepins. The test can be described thus: displacement of 3H-flunitrazepam from benzodiazepine receptors, rat cerebral cortex membranes. The settings on record: 3H-flunitrazepam 1nM. The class given is binding. A general note: Loss of bound radioactivity is the signal in a displacement assay; it reports binding, not function.
Test [4] concerns Ca^++ receptors. The test can be described thus: displacement of 3H-nitrendipine from Ca++ receptors, rat brain membranes. The class given is binding. The settings on record: 3H-nitrendipine 1nM.
Test [5] addresses T3, 5-HT3 receptors (Oryctolagus cuniculus, UniProt A0A5F9C9J3).
T3 construct: from tissue; host or cells: isolated rabbit vagus nerve
T3 sequence (A0A5F9C9J3 1-494): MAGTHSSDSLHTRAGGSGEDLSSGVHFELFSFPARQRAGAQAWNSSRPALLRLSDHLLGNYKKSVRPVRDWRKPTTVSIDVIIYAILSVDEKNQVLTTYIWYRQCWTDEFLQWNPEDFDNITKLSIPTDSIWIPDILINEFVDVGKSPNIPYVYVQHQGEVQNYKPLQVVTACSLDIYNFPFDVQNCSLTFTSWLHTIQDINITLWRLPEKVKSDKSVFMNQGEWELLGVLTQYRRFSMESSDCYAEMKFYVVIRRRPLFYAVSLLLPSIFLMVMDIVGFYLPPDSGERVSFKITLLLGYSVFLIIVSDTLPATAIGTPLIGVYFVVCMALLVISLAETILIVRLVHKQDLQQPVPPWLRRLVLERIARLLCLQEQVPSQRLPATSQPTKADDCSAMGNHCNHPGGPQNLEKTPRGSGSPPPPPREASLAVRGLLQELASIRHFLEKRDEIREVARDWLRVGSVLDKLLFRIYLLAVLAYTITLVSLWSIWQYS
The test can be described thus: anti-5-HT3 activity in vitro on the isolated vagus nerve of rabbit. As to the method:
(b) Evaluation of the anti-5-HT3 activity in vitro on the vagus nerve of rabbit. Male albino New Zeland rabbits weighing about 3 kg were sacrified by an air injection in the edge auriculaers vein. The two vagus nerves, drawn as soon as possible, were placed in a bath of Locke solution having the following composition: 154 mM NaCl; 5.5 mM KCl; 2.2 mM CaCl2; 5 mM glucose; 8 mM TRIS, the pH being adjusted at 7.6 by addition of HCl. Nerves were stripped of their epineurium and transferred into a device described by Kosterlitz H. W. et al., [J. Physiol., 183, IP-3P, (1966)] consisting of four compartments separated by means of 3 elastic membranes having a little hole through which the nerve passes. The glucose concentration perfusing a portion of the nerve was 315 mM. The overmaximal electric stimulation by a single shock at 10 seconds intervals elicited a potential visualized on a storage oscilloscope. In the potential the complexes due to the excitation of fibers A, B and C were distinguished. A serotonin solution applied to the nerve causes the dose-dependent fall of the potential for fibers C only. The non variation of the A-B complex when applying serotonin and the test compounds of formula I indicates on one hand the specific action of the substances for receptors relating to fibers C only (5-HT3 receptors) and on the other hand the absence of local-anaesthetic activity. Tests were performed at room temperature (24°-25° C.). The optimum maximum reduction of the potential of fibers C by serotonin resulted to be 44%. This reduction was adopted as maximum effect (100%). For each nerve a dose-response curve was constructed with cumulative doses of serotonin. After having washed serotonin and recovered the initial potential, the nerve was balanced with a fixed concentration of the compound of formula I for 60 minutes and successively the dose-response curve to serotonin was repeated, the compound of formula I being always present in the same concentration. After having applied a serotonin concentration sufficient to produce the highest effect, the preparation was washed and thereafter it was balanced again for 60 minutes with a solution of the same compound of formula I having a higher concentration. The procedure was then repeated. For each dose of the compound of formula I the test was repeated more than 5 times. The negative […] logarithm of the molar concentration of the compound of formula I which gives a 50% reduction of the effect of the agonist substance (pA2) was calculated. In table 7, the pA2 values of some compounds of formula I are reported.

Test [6] relates to rat sciatic nerve. The test can be described thus: local anaesthetic activity on sciatic nerve preparation in vitro. Particulars: read-out: ED50 (C.L. 95%).
Test [7] concerns the target 5-HT2 receptors (Rattus norvegicus, UniProt P14842). Briefly: affinity for 5-HT2 receptors (3H-spiroperidol binding), rat cortex membranes. Particulars: 3H-spiroperidol […]; rat frontal cortex membranes.
Test [8] concerns 5-HT1 receptors. Briefly: affinity for 5-HT1 receptors (3H serotonin binding), rat cortex membranes. Particulars: 3H-serotonin 5 nM; rat frontal cortex membranes.
Test [9] has as its system guinea pig back. Briefly: local anaesthetic activity in the test of the guinea pig back in vivo (intracutaneous infiltration). Particulars: guinea pig back, cutaneous anaesthesia, 0.25 ml. As to the method: (b) Evaluation of the local anaesthetic activity in the test of the guinea pig back in vivo in comparison with lidocaine.
The local anaesthetic activity was evaluated by the method of intracutaneous infiltration in the guinea pig back as described by Bulbring E. and Wajda I. [(J. Pharmacol. Exp. Ther. 85, 78, (1945)].
Female guinea pigs weighin 400-500 g were treated intracutaneously in 4 points of their back.
At 5 minutes intervals, it was determined the reactivity of the animal to pain in each area by considering the number of responses to 6 pain stimulations.
Compounds of formula I, compound R and lidocaine, dissolved at different concentration in physiological solution adjusting the pH at 7 by addition of NaHCO3 were injected under the skin at the constant volume of 0.25 ml.
The distribution of the treatments in the 4 areas of the back was carried out according to the scheme of the Latin square. Experiments were carried out in blind.
As an example, the ED50 values for compound No. 8, compound R and lidocaine determined at 5, 15 and 30 minutes after the administration are reported in table 4.

The mark [10] stands for this setting: vs acetylcholine, guinea pig small intestine, 37° C., test compounds 10^-5 M, read-out: Antichlonergic activity (pA2) (converted).

Counter-ions that a name gives are not always drawn. Like-named read-outs stand apart in the source and are kept apart here. Bounds are passed on as bounds.

T1 sequence (H0W1Z3 1-590): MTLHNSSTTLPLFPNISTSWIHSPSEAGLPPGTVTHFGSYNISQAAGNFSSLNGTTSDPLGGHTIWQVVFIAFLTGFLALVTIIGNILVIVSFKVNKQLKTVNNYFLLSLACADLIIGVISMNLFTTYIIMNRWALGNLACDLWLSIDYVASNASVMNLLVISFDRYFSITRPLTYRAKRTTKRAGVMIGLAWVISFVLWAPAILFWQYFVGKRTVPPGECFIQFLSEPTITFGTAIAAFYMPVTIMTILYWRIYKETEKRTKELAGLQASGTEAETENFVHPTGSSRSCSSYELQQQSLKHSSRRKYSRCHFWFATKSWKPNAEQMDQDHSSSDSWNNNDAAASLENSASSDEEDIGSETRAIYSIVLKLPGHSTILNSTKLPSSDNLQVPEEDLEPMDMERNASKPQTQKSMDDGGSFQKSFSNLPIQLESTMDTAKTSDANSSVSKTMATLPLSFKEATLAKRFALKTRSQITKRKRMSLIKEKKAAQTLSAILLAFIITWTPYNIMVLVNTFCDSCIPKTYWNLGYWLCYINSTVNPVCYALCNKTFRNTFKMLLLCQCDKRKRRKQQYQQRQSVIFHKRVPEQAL
Chain of 5-HT2 receptors (P14842 whole entry): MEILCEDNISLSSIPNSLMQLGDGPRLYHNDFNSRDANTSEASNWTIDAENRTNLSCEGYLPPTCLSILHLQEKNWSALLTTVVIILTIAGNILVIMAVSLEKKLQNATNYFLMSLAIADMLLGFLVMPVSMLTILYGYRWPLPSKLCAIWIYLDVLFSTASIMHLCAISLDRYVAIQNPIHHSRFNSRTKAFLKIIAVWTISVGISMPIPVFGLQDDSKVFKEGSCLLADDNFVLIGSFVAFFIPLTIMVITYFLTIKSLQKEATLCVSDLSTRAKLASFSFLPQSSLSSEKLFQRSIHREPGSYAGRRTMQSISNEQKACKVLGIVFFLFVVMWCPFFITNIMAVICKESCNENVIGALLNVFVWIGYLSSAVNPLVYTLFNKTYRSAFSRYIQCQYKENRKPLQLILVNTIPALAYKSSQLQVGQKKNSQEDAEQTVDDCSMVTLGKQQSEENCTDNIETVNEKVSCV

For the compound `CN1[C@@H]2CC[C@H]1C[C@@H](OC(=O)c1cc(OCc3ccccc3)no1)C2` [Compound 3, 3-benzyloxyisoxazole-5-carboxylic acid 3-(endo-8-methyl-8-azabicyclo[3,2,1]octyl) ester hydrochloride], the figures for the Kb in test [1] and in test [2] were 2 µM and 2.51 µM, respectively.

As to `Cc1cc(C(=O)O[C@H]2C[C@H]3CC[C@@H](C2)N3C)on1` [Compound 5, 3-methylisoxazole-5-carboxylic acid 3-(endo-8-methyl-8-azabicyclo[3,2,1]octyl) ester hydrochloride], the Kb in [1] was 31.6 µM; in [2], 12.6 µM; in [5], 0.00158 µM. Further, the “Displacement activity at benzodiazepine receptors” value in test [3] was “inactive”. Besides, in test [4], the “Displacement activity at receptors of Ca++” value was “inactive”.

Consider `COc1cc(C(=O)O[C@H]2C[C@H]3CC[C@@H](C2)N3C)on1` [Compound 6, 3-methoxyisoxazole-5-carboxylic acid 3-(endo-8-methyl-8-azabicyclo[3,2,1]octyl) ester hydrochloride], for which the Kb in test [1] is 12.6 µM; in test [2] it was 6.31 µM; in test [5], 0.00126 µM. In test [6] (rat, sciatic nerve, 8 min), the IC50 is above 15000 µM.

Turning to `Cc1cc(C(=O)OC2CCN(C)CC2)no1` [Compound 9, 5-methylisoxazole-3-carboxylic acid 4-(1-methylpiperidinyl) ester hydrochloride], the Kb is 25.1 µM in test [1] (setting [10]) and 10 µM in [2]. Moreover, in [6] (rat sciatic nerve in vitro, 8 minutes contact), the IC50 was above 15000 µM.

Consider `Cc1cc(C(=O)OC2CCCN(C)C2)no1` (stereo not shown) [Compound 10, 5-methylisoxazole-3-carboxylic acid 3-(1-methylpiperidinyl) ester hydrochloride], for which, in [7], the “Affinity (IC50) to 5-HT2 receptors” value is “inactive”. Further, the Kb in [1] (setting [10]) was 50.1 µM; in test [2] it was 200 µM.

With `CCN1CCCC(NC(=O)c2cc(C)on2)C1` (stereo not shown) [Compound 14, N-(1-ethyl-3-piperidinyl)-5-methylisoxazole-3-carboxamide], the Kb in [2] is 316 µM.

For `Cc1cc(C(=O)N[C@@H]2C[C@H]3CC[C@@H](C2)N3C)no1` [Compound 15, N-[3-(exo-8-methyl-8-azabicyclo[3,2,1]octyl)]-5-methylisoxazole-3-carboxamide], in test [2], the Kb is 50.1 µM.

In the case of `Cc1cc(C(=O)N[C@H]2C[C@H]3CC[C@@H](C2)N3C)no1` [Compound 16, N-[3-(endo-8-methyl-8-azabicyclo[3,2,1]octyl)]-5-methylisoxazole-3-carboxamide], the Kb in test [1] is 126 µM; in test [2], 7.94 µM.

On to `Cc1cc(C(=O)NC2CN3CCC2CC3)no1` (stereo not shown) [Compound 17, N-[3-(1-azabicyclo[2,2,2]octyl)]-5-methylisoxazole-3-carboxamide], for which the Kb in test [2] was 50.1 µM.

With `Cc1cc(C(=O)O[C@H]2C[C@H]3CC[C@@H](C2)[N+]3(C)C)no1` [Compound 18, endo-8,8-dimethyl-3-(5-methylisoxazole-3-carbonyloxy)-8-azoniabicyclo[3,2,1]octane bromide], the “Affinity (IC50) to 5-HT2 receptors” value in test [7] is “inactive”. In addition, in test [8], the “Affinity (IC50) to 5-HT1 receptors” value is “inactive”. Moreover, the values for the Kb in test [1] and in test [2] were 6.31 µM and 15.8 µM, respectively. The IC50 in test [6] (rat, sciatic nerve, 8 min) was above 15000 µM.

As for `CN1C(=O)CN=C(c2ccccc2)c2cc(Cl)ccc21` [diazepam, reference compound], in [3], the “Displacement activity at benzodiazepine receptors” value is 4.

For `O=C(c1ccc(F)cc1)C1CCN(CCn2c(=O)[nH]c3ccccc3c2=O)CC1` [ketanserine, reference compound], the IC50 in test [8] was 10 µM.

As to `CCN(CC)CC(=O)Nc1c(C)cccc1C` [lidocaine], in [9] (5 min. after administration), the “ED50 (C.L. 95%), 5 min.” value is 5.8 (4.9-6.8) mM. Also, in test [9] (15 min. after administration), the “ED50 (C.L. 95%), 15 min.” value was 7.6 (6.8-8.4) mM. In addition, the “ED50 (C.L. 95%), 30 min.” value in test [9] (30 min. after administration) was 15.2 (13.8-16.6) mM. Besides, the IC50 in test [6] (rat, sciatic nerve, 8 min) was determined as 600 µM.

As for `NCCc1c[nH]c2ccc(O)cc12` [serotonin, reference compound], in test [5] (serotonin applied to rabbit vagus nerve, 24°-25° C.), the “optimum maximum reduction of the potential of fibers C” value came to 44%.
